The values that follow come from ChEMBL document CHEMBL3137667, “[Drug-induced liver injury; fourteenth updated edition of the bibliographic database of liver injuries and related drugs]” (Gastroenterol Clin Biol, 2004).

Series [1] in a line: Presence of at least one case with successful reintroduction. [column 'REINT' in source]. Conditions: human.
For series [2] the following is noted: human.
Series [3] is described as follows: Proposed mechanism(s) of liver damage. [column 'MEC' in source]. Conditions: human.
The conditions of series [4]: human. This is another data set of the same source.
The conditions of series [5]: human. This is another data set of the same source.
For series [6] the following is noted: human. The source holds these as a separate data set.
The conditions of series [7]: human, serum.
Series [8] is described as follows: Highest frequency of acute liver toxicity observed during clinical trials, expressed as a percentage. [column '% AIGUE' in source]. Conditions: human.
The conditions of series [9]: human. This is another data set of the same source.
A short description of series [10]: Highest frequency of moderate liver toxicity observed during clinical trials, expressed as a percentage. [column '% BIOL' in source]. Conditions: human.
The conditions of series [11]: human. This is another data set of the same source.
For series [12] the following is noted: human, serum. The source holds these as a separate data set.
The conditions of series [13]: human. The source holds these as a separate data set.
The conditions of series [14]: human. The source holds these as a separate data set.
The conditions of series [15]: human, serum, 4383 h.
The conditions of series [16]: human. The source holds these as a separate data set.
The nature of series [17]: Comments (NB not yet translated). [column 'COMMENTAIRES' in source]. Conditions: human.
For series [18] the following is noted: human. The source holds these as a separate data set.
The nature of series [19]: Times to onset, minimal and maximal, observed in the indexed observations. [column 'DELAI' in source]. Conditions: human.
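Throughout, for Hepatotoxicity (association with vascular disease): count of indexed literature references reporting vascular liver injury in humans, e.g. peliosis hepatitis, hepatic veno-occlusive disease or Budd-Chiari syndrome.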
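Throughout, for Hepatotoxicity (benign tumour): value is a count of indexed literature references citing a benign tumour confirmed by histopathology.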
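Throughout, for Hepatotoxicity (choleostasis): human cholestatic liver injury, shown by histopathology or by peak ALT or AST elevation over alkaline phosphatase ratio below 2, value counts indexed literature reports.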
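Throughout, for Hepatotoxicity (chronic liver disease): chronic liver injury confirmed by histopathology or persistently raised serum aminotransferase activity beyond 6 months, value given as the count of indexed literature references.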
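Throughout, for Hepatotoxicity (cirrhosis): value is a count of indexed literature references reporting cirrhosis confirmed by histopathology.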
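Throughout, for Hepatotoxicity (cytolytic): human cytolytic liver injury, shown by histopathology or by a ratio above 5 of peak ALT or AST elevation to alkaline phosphatase elevation, value counts indexed references.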
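Throughout, for Hepatotoxicity (granulomatous hepatitis): value is a count of indexed literature references reporting granulomatous liver disease confirmed by histopathology.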
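Throughout, for Hepatotoxicity (malignant tumour): malignant tumour confirmed by histopathology, value gives the count of indexed literature references reporting it.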
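Throughout, for Hepatotoxicity (severe hepatitis): human clinical data: severe hepatitis, meaning potentially life-threatening liver failure or clinically observed cases, the value counts how many indexed literature references report it.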
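Throughout, for Hepatotoxicity (steatosis): steatosis confirmed by histopathology, value is the count of indexed references.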

Consider `CC[C@H]1OC(=O)[C@H](C)[C@@H](O[C@H]2C[C@@](C)(OC)[C@@H](O)[C@H](C)O2)[C@H](C)[C@@H](O[C@@H]2O[C@H](C)C[C@H](N(C)C)[C@H]2O)[C@](C)(OC)C[C@@H](C)C(=O)[C@H](C)[C@@H](O)[C@]1(C)O` [CLARITHROMYCIN], for which the “Hepatotoxicity (successful reintroduction)” value in [1] was “yes”. Also, in series [2], the “Hepatotoxicity (cirrhosis)” value stood at 0. The “Hepatotoxicity (mechanism)” value in series [3] was “Allergic, Dose-dependant”. Moreover, the “Hepatotoxicity (steatosis)” value in series [4] was found to be 0. For the same compound, the “Hepatotoxicity (benign tumour)” value in series [5] turned out to be 0. The “Hepatotoxicity (malignant tumour)” value in series [6] is 0. Besides, the “Hepatotoxicity (acute)” value is on record as 13 in series [7] and 5.6% in series [8]. Moreover, in [9], the “Hepatotoxicity (association with vascular disease)” value was 0. The results for the “Hepatotoxicity (moderate)” value in series [10] and in series [12] were 50.6% and 47, respectively. Moreover, the “Hepatotoxicity (severe hepatitis)” value in [11] is on record as 4. For the same compound, in series [13], the “Hepatotoxicity (animal toxicity known)” value is reported as “yes”. Moreover, the “Hepatotoxicity (granulomatous hepatitis)” value in [14] came to 0. Also, the “Hepatotoxicity (chronic liver disease)” value in [15] is reported as 0. In addition, the “Hepatotoxicity (choleostasis)” value in series [16] was determined as 6. The “Hepatotoxicity (comment)” value in series [17] is “AC_ANTI-N”. For the same compound, the “Hepatotoxicity (cytolytic)” value in series [18] came out at 9. In series [19], the “Hepatotoxicity (time to onset)” value turned out to be 1 day - 10 weeks.
Regarding `FC(F)OC(Cl)C(F)(F)F` (configuration not stated) [ISOFLURANE], the “Hepatotoxicity (successful reintroduction)” value in series [1] is on record as “yes”. In series [2], the “Hepatotoxicity (cirrhosis)” value was 0. The “Hepatotoxicity (mechanism)” value in series [3] is “Allergic, Reactive metabolite”. Further, in [4], the “Hepatotoxicity (steatosis)” value is on record as 2. Besides, the “Hepatotoxicity (benign tumour)” value in [5] is listed as 0. Also, in series [6], the “Hepatotoxicity (malignant tumour)” value is recorded as 0. Also, the “Hepatotoxicity (acute)” value in [7] is on record as 25; in series [8], 0%. The “Hepatotoxicity (association with vascular disease)” value in series [9] is reported as 0. For the same compound, the “Hepatotoxicity (moderate)” value in series [10] worked out at 13.3%; in [12], 5. Besides, the “Hepatotoxicity (severe hepatitis)” value in series [11] was found to be 11. Besides, the “Hepatotoxicity (animal toxicity known)” value in [13] is given as “yes”. The “Hepatotoxicity (granulomatous hepatitis)” value in series [14] was determined as 0. Moreover, the “Hepatotoxicity (chronic liver disease)” value in [15] came out at 0. The “Hepatotoxicity (choleostasis)” value in series [16] was 1. Besides, the “Hepatotoxicity (comment)” value in [17] is recorded as “AC_ANTI-MFR/-TFA I/ALCOOL”. Further, the “Hepatotoxicity (cytolytic)” value in series [18] is 20. The “Hepatotoxicity (time to onset)” value in series [19] is less than 1 day - 3 weeks.
Regarding `O=C(O)COc1ccc(C(=O)c2cccs2)c(Cl)c1Cl`, the “Hepatotoxicity (successful reintroduction)” value in [1] is given as “yes”. Further, the “Hepatotoxicity (cirrhosis)” value in [2] worked out at 4. In series [3], the “Hepatotoxicity (mechanism)” value was “Allergic, Reactive metabolite”. The “Hepatotoxicity (steatosis)” value in series [4] turned out to be 1. The “Hepatotoxicity (benign tumour)” value in series [5] was 0. In addition, in series [6], the “Hepatotoxicity (malignant tumour)” value came to 0. For the same compound, the “Hepatotoxicity (acute)” value is reported as 18 in series [7] and 0% in series [8] (Liver). For the same compound, the “Hepatotoxicity (association with vascular disease)” value in [9] is 0. In addition, the “Hepatotoxicity (moderate)” value in series [10] (Liver) stood at 7%; in series [12], 9. Moreover, the “Hepatotoxicity (severe hepatitis)” value in series [11] (Liver) was determined as 9. For the same compound, the “Hepatotoxicity (animal toxicity known)” value in series [13] was “yes”. Moreover, the “Hepatotoxicity (granulomatous hepatitis)” value in [14] amounted to 0. The “Hepatotoxicity (chronic liver disease)” value in series [15] is recorded as 7. In addition, the “Hepatotoxicity (choleostasis)” value in series [16] amounted to 8. The “Hepatotoxicity (comment)” value in series [17] was “AC_ANTI-MFR2”. For the same compound, the “Hepatotoxicity (cytolytic)” value in series [18] amounted to 18. In addition, the “Hepatotoxicity (time to onset)” value in series [19] came to 2 weeks - 1 year.
